What was measured:
[1] = Gravimetric vapour sorption (GVS) analysis, hygroscopicity; type: physicochemical; details: GVS at 25° C.; for Hygroscopicity: mass change: between 40% and 80% relative humidity; for Hygroscopicity: sorption of moisture mass/mass: humidity program 40-0-95-0-95-40% RH, maximum sorption with hysteresis
Method: Gravimetric Vapour Sorption (GVS) Analysis
The sample was allowed to equilibrate at 40% RH before starting a pre-defined humidity program (40-0-95-0-95-40% RH, steps of 5% ΔRH and with a maximal equilibration time of 24 hours per step were applied. About 20 to 30 mg of each sample was used. The hygroscopic classification is done according to the European Pharmacopeia Technical Guide (1999, page 86), e.g., slightly hygroscopic: increase in mass is less than 2% and equal to or greater than 0.2% mass/mass; hygroscopic: increase in mass is less than 15% and equal to or greater than 2% mass/mass. The mass change between 40% relative humidity and 80% relative humidity in the first adsorption scan is considered.

[2] = Measurement of brain and systemic concentration after oral administration; type: in vivo; details: 3 h after oral administration (100 mg/kg), n=3, male wistar rats
Method: Measurement of Brain and Systemic Concentration after Oral Administration:
Samples are collected in the same animal at the same time point (+/−5 min). Blood is sampled from the vena cava caudalis into containers with EDTA as anticoagulant and centrifuged to yield plasma. Brain is sampled after cardiac perfusion of 10 mL NaCl 0.9% and homogenized into one volume of cold phosphate buffer (pH 7.4). All samples are extracted with MeOH and analyzed by LC-MS/MS. Concentrations are determined with the help of calibration curves.

Wistar rats = test: Sedative effects: EEG, EMG and behavioural indices of alertness recorded by radiotelemetry; type: in vivo; details: 30 mg/kg po, effects analyzed over 6 hours
Method: Sedative Effects: EEG, EMG and Behavioural Indices of Alertness Recorded by Radiotelemetry In Vivo in Wistar Rats.
Electroencephalography (EEG) and Electromyography (EMG) signals were measured by telemetry using TL11M2-F20-EET miniature radiotelemetric implants (Data Science Int.) with two pairs of differential leads.
Surgical implantation was performed under general anesthesia with Ketamin/Xylazin, for cranial placement of one differential pair of EEG electrodes and one pair of EMG leads inserted in either side of the muscles of the neck. After surgery, rats recovered in a thermoregulated chamber and received analgesic treatment with subcutaneous buprenorphine twice a day for 2 d. They were then housed individually and allowed to recover for a minimum of 2 weeks. Thereafter, rats—in their home cage—were placed in a ventilated sound-attenuating box, on a 12-h light/12-h dark cycle, for acclimatization before continuous EEG/EMG recordings started. The telemetric technology that we used in this study allows accurate and stress-free acquisition of biosignals in rats placed in their familiar home cage environment, with no recording leads restricting their movements. Variables analyzed included four different stages of vigilance and sleep, spontaneous activity in the home cage and body temperature. Sleep and wake stages were evaluated using a rodent scoring software (Somnologica Science) directly processing electrical biosignals on 10 s contiguous epochs. The scoring is based on frequency estimation for EEG and amplitude discrimination for EMG and locomotor activity. Using these measurements, the software determines the probability that all components within each epoch best represent active waking (AW), quiet waking (QW), non-REM-sleep (NREM) or REM-sleep (REM). The percentage of total time spent in AW, QW, NREM- and REM-sleep was calculated per 12 h light or dark period. The latency to the onset of the first significant NREM- and REM-sleep episodes and the frequency and duration of those episodes were also calculated. […] All variables were subsequently recorded for 12 h following administration of the orexin receptor antagonist.

## COc1ccc(-n2nccn2)c(C(=O)N2CCC[C@@]2(C)c2nc3c(C)c(Cl)ccc3[nH]2)c1 [COMPOUND as free base in amorphous form, [(S)-2-(5-chloro-4-methyl-1H-benzoimidazol-2-yl)-2-methyl-pyrrolidin-1-yl]-(5-methoxy-2-[1,2,3]triazol-2-yl-phenyl)-methanone]
[1]; first adsorption scan
  Hygroscopicity: mass change: about 0.7%), Hysteresis and sorption
[1]
  Hygroscopicity: sorption of moisture mass/mass: of up to 2.7% moisture mass/mass.

## COc1ccc(-n2nccn2)c(C(=O)N2CCC[C@@]2(C)c2nc3c(C)c(Cl)ccc3[nH]2)c1 [COMPOUND in crystalline form 1, (S)-(2-(6-chloro-7-methyl-1H-benzo[d]imidazol-2-yl)-2-methylpyrrolidin-1-yl)(5-methoxy-2-(2H-1,2,3-triazol-2-yl)phenyl)methanone]
[1]; European Pharmacopeia Technical Guide classification, 40% to 80% RH, first adsorption scan
  Hygroscopicity (hygroscopic classification): Non hygroscopic (mass change smaller
[1]; first adsorption scan
  Hygroscopicity: mass change: then 0.1%)

## COc1ccc(-n2nccn2)c(C(=O)N2CCC[C@@]2(C)c2nc3c(C)c(Cl)ccc3[nH]2)c1 [COMPOUND in crystalline form 2, (S)-(2-(6-chloro-7-methyl-1H-benzo[d]imidazol-2-yl)-2-methylpyrrolidin-1-yl)(5-methoxy-2-(2H-1,2,3-triazol-2-yl)phenyl)methanone]
[1]; first adsorption scan
  Hygroscopicity: mass change: about 0.7%)
[1]
  Hygroscopicity: sorption of moisture mass/mass: ≤ 1.1% moisture mass/mass.

## COc1ccc(-n2nccn2)c(C(=O)N2CCC[C@@]2(C)c2nc3c(C)c(Cl)ccc3[nH]2)c1 [COMPOUND, (S)-(2-(6-chloro-7-methyl-1H-benzo[d]imidazol-2-yl)-2-methylpyrrolidin-1-yl)(5-methoxy-2-(2H-1,2,3-triazol-2-yl)phenyl)methanone]
[2]
  concentration in brain [B]: 1808 ng/g
  concentration in plasma [P]: 1280 ng/mL
Wistar rats
  effect on NREM sleep compared to vehicle controls: +27%
  effect on REM sleep compared to vehicle controls: +53%
  effect on active wake compared to vehicle controls: −24%
  effect on home cage activity compared to vehicle controls: −31%

Reference: US9914720B2, “Crystalline form of (S)-(2-(6-chloro-7-methyl-1H-benzo[D]imidazol-2-yl)-2-methylpyrrolidin-1-yl)(5-methoxy-2-(2H-1,2,3-triazol-2-yl)phenyl)methanone and its use as orexin receptor antagonists” (IDORSIA PHARMACEUTICALS LTD, priority 2013, dated 2018)
